The source of these data is paper PMC12748989 (Nature Communications, 2025).

Structures are written as SMILES.

One test deals with PBMC. Conditions: 12.5 µM.

As to `CC[C@H](C)[C@H](N)C(=O)N[C@@H](CC(N)=O)C(=O)N[C@@H](CC(C)C)C(=O)N[C@@H](CCCCN)C(=O)N[C@@H](C)C(=O)N[C@@H](CC(C)C)C(=O)N[C@@H](C)C(=O)N[C@@H](C)C(=O)N[C@@H](CC(C)C)C(=O)N[C@@H](CCC(=O)O)C(=O)N[C@@H](CCCCN)C(=O)N[C@@H](CCCCN)C(=O)N[C@H](C(=O)N[C@@H](CC(C)C)C(N)=O)[C@@H](C)CC` [E10], the “Average (percentage cell inhibition), Dmastoparan MDA-MB231 12.5uM” value in the test on MDA-MB-231 cells was 7.891%. In addition, the “Average (percentage cell inhibition), Mastoparan PBMC” value in the test on PBMC was -0.2344%.

Turning to `CC[C@H](C)[C@H](N)C(=O)N[C@@H](CC(N)=O)C(=O)N[C@@H](CC(C)C)C(=O)N[C@@H](CCCCN)C(=O)N[C@@H](C)C(=O)N[C@@H](CC(C)C)C(=O)N[C@@H](C)C(=O)N[C@@H](C)C(=O)N[C@@H](CC(C)C)C(=O)N[C@@H](C)C(=O)N[C@@H](CC(C)C)C(=O)N[C@@H](CCCCN)C(=O)N[C@H](C(=O)N[C@@H](CC(C)C)C(N)=O)[C@@H](C)CC` [L11], the “Average (percentage cell inhibition), Dmastoparan MDA-MB231 12.5uM” value with MDA-MB-231 cells was 59.9826%. Also, the “Average (percentage cell inhibition), Mastoparan PBMC” value in the test with PBMC came to 23.4198%.

Turning to `CC[C@H](C)[C@H](N)C(=O)N[C@@H](CC(N)=O)C(=O)N[C@@H](CC(C)C)C(=O)N[C@@H](CCCCN)C(=O)N[C@@H](C)C(=O)N[C@@H](CC(C)C)C(=O)N[C@@H](C)C(=O)N[C@@H](C)C(=O)N[C@@H](CC(C)C)C(=O)N[C@@H](C)C(=O)N[C@@H](Cc1ccc(O)cc1)C(=O)N[C@@H](CCCCN)C(=O)N[C@H](C(=O)N[C@@H](CC(C)C)C(N)=O)[C@@H](C)CC` [Y11], in the test on MDA-MB-231 cells, the “Average (percentage cell inhibition), Dmastoparan MDA-MB231 12.5uM” value was determined as 42.1135%. Further, the “Average (percentage cell inhibition), Mastoparan PBMC” value in the test with PBMC was determined as 16.0926%.

Regarding `CC[C@H](C)[C@H](N)C(=O)N1CCC[C@H]1C(=O)N[C@@H](CC(C)C)C(=O)N[C@@H](CCCCN)C(=O)N[C@@H](C)C(=O)N[C@@H](CC(C)C)C(=O)N[C@@H](C)C(=O)N[C@@H](C)C(=O)N[C@@H](CC(C)C)C(=O)N[C@@H](C)C(=O)N[C@@H](CCCCN)C(=O)N[C@@H](CCCCN)C(=O)N[C@H](C(=O)N[C@@H](CC(C)C)C(N)=O)[C@@H](C)CC` [P2], the “Average (percentage cell inhibition), Dmastoparan MDA-MB231 12.5uM” value in the test with MDA-MB-231 cells was determined as 36.9174%. Also, the “Average (percentage cell inhibition), Mastoparan PBMC” value in the test with PBMC is given as -4.49%.

Regarding `CC[C@H](C)[C@H](N)C(=O)N[C@@H](CC(N)=O)C(=O)N[C@@H](CC(C)C)C(=O)N[C@@H](CCCCN)C(=O)N[C@@H](C)C(=O)N[C@@H](CC(C)C)C(=O)N[C@@H](C)C(=O)N[C@@H](C)C(=O)N[C@@H](CC(C)C)C(=O)N[C@@H](C)C(=O)N[C@@H](CCCCN)C(=O)N[C@@H](CCCCN)C(=O)N[C@@H](CCCNC(=N)N)C(=O)N[C@@H](CC(C)C)C(N)=O` [R13], the “Average (percentage cell inhibition), Dmastoparan MDA-MB231 12.5uM” value in the test with MDA-MB-231 cells is 13.2975%. The “Average (percentage cell inhibition), Mastoparan PBMC” value in the test on PBMC is listed as -5.395%.

`CC[C@H](C)[C@H](N)C(=O)N[C@@H](CC(N)=O)C(=O)N[C@@H](CC(C)C)C(=O)N[C@@H](CCCCN)C(=O)N[C@@H](C)C(=O)N[C@@H](CCC(=O)O)C(=O)N[C@@H](C)C(=O)N[C@@H](C)C(=O)N[C@@H](CC(C)C)C(=O)N[C@@H](C)C(=O)N[C@@H](CCCCN)C(=O)N[C@@H](CCCCN)C(=O)N[C@H](C(=O)N[C@@H](CC(C)C)C(N)=O)[C@@H](C)CC` [E6]: in the test with MDA-MB-231 cells, the “Average (percentage cell inhibition), Dmastoparan MDA-MB231 12.5uM” value is listed as 39.2363%. In addition, the “Average (percentage cell inhibition), Mastoparan PBMC” value with PBMC is reported as 3.211%.

In the case of `CC[C@H](C)[C@H](NC(=O)[C@H](CCCCN)NC(=O)[C@H](CCCCN)NC(=O)[C@H](C)NC(=O)[C@H](CC(C)C)NC(=O)[C@H](C)NC(=O)[C@H](C)NC(=O)[C@H](CC(C)C)NC(=O)[C@H](C)NC(=O)[C@H](CCCCN)NC(=O)[C@H](CC(C)C)NC(=O)[C@H](CC(N)=O)NC(=O)[C@@H](N)CCCNC(=N)N)C(=O)N[C@@H](CC(C)C)C(N)=O` [R1], the “Average (percentage cell inhibition), Dmastoparan MDA-MB231 12.5uM” value in the test on MDA-MB-231 cells came to 31.3783%. For the same compound, in the test on PBMC, the “Average (percentage cell inhibition), Mastoparan PBMC” value is listed as -2.103%.

Take `CC[C@H](C)[C@H](N)C(=O)N[C@@H](CC(C)C)C(=O)N[C@@H](CC(C)C)C(=O)N[C@@H](CCCCN)C(=O)N[C@@H](C)C(=O)N[C@@H](CC(C)C)C(=O)N[C@@H](C)C(=O)N[C@@H](C)C(=O)N[C@@H](CC(C)C)C(=O)N[C@@H](C)C(=O)N[C@@H](CCCCN)C(=O)N[C@@H](CCCCN)C(=O)N[C@H](C(=O)N[C@@H](CC(C)C)C(N)=O)[C@@H](C)CC` [L2]: the “Average (percentage cell inhibition), Dmastoparan MDA-MB231 12.5uM” value in the test with MDA-MB-231 cells was 95.7612%. The “Average (percentage cell inhibition), Mastoparan PBMC” value with PBMC worked out at 76.9101%.

Turning to `CC[C@H](C)[C@H](N)C(=O)N[C@@H](CC(N)=O)C(=O)N[C@@H](CC(C)C)C(=O)N[C@@H](CCCCN)C(=O)N[C@@H](C)C(=O)N[C@@H](CC(C)C)C(=O)N[C@@H](C)C(=O)N[C@@H](C)C(=O)N[C@@H](CC(C)C)C(=O)N[C@@H](C)C(=O)N[C@@H](CCCCN)C(=O)N[C@@H](CCCCN)C(=O)N[C@H](C(=O)N1CCC[C@H]1C(N)=O)[C@@H](C)CC` [P14], in the test on MDA-MB-231 cells, the “Average (percentage cell inhibition), Dmastoparan MDA-MB231 12.5uM” value is listed as 0.693%. Moreover, in the test with PBMC, the “Average (percentage cell inhibition), Mastoparan PBMC” value was -11.4473%.

`CC[C@H](C)[C@H](N)C(=O)N[C@@H](CC(N)=O)C(=O)N[C@@H](CC(C)C)C(=O)N[C@@H](C)C(=O)N[C@@H](C)C(=O)N[C@@H](CC(C)C)C(=O)N[C@@H](C)C(=O)N[C@@H](C)C(=O)N[C@@H](CC(C)C)C(=O)N[C@@H](C)C(=O)N[C@@H](CCCCN)C(=O)N[C@@H](CCCCN)C(=O)N[C@H](C(=O)N[C@@H](CC(C)C)C(N)=O)[C@@H](C)CC` [A4]: the “Average (percentage cell inhibition), Dmastoparan MDA-MB231 12.5uM” value in the test with MDA-MB-231 cells is reported as 36.5883%. Besides, the “Average (percentage cell inhibition), Mastoparan PBMC” value in the test on PBMC is listed as 11.5193%.

In the case of `CC[C@H](C)[C@H](N)C(=O)N[C@@H](CC(N)=O)C(=O)N[C@@H](CC(C)C)C(=O)N[C@@H](CCCCN)C(=O)N1CCC[C@H]1C(=O)N[C@@H](CC(C)C)C(=O)N[C@@H](C)C(=O)N[C@@H](C)C(=O)N[C@@H](CC(C)C)C(=O)N[C@@H](C)C(=O)N[C@@H](CCCCN)C(=O)N[C@@H](CCCCN)C(=O)N[C@H](C(=O)N[C@@H](CC(C)C)C(N)=O)[C@@H](C)CC` [P5], the “Average (percentage cell inhibition), Dmastoparan MDA-MB231 12.5uM” value in the test with MDA-MB-231 cells worked out at 25.1894%. Moreover, the “Average (percentage cell inhibition), Mastoparan PBMC” value in the test with PBMC stood at 0.2776%.

Consider `CC[C@H](C)[C@H](N)C(=O)N[C@@H](CC(N)=O)C(=O)N[C@@H](CCC(=O)O)C(=O)N[C@@H](CCCCN)C(=O)N[C@@H](C)C(=O)N[C@@H](CC(C)C)C(=O)N[C@@H](C)C(=O)N[C@@H](C)C(=O)N[C@@H](CC(C)C)C(=O)N[C@@H](C)C(=O)N[C@@H](CCCCN)C(=O)N[C@@H](CCCCN)C(=O)N[C@H](C(=O)N[C@@H](CC(C)C)C(N)=O)[C@@H](C)CC` [E3], for which the “Average (percentage cell inhibition), Dmastoparan MDA-MB231 12.5uM” value in the test on MDA-MB-231 cells was determined as 14.5974%. For the same compound, the “Average (percentage cell inhibition), Mastoparan PBMC” value in the test with PBMC is 5.899%.

For the compound `CC[C@H](C)[C@H](N)C(=O)N[C@@H](CC(N)=O)C(=O)N[C@@H](CC(C)C)C(=O)N[C@@H](CCCCN)C(=O)N[C@@H](C)C(=O)N[C@@H](CC(C)C)C(=O)N[C@@H](C)C(=O)N[C@@H](C)C(=O)N[C@@H](CC(C)C)C(=O)N[C@@H](C)C(=O)N[C@@H](CCCCN)C(=O)N[C@@H](C)C(=O)N[C@H](C(=O)N[C@@H](CC(C)C)C(N)=O)[C@@H](C)CC` [A12], the “Average (percentage cell inhibition), Dmastoparan MDA-MB231 12.5uM” value with MDA-MB-231 cells is recorded as 42.9356%. Also, the “Average (percentage cell inhibition), Mastoparan PBMC” value with PBMC stood at 17.0691%.

For `CC[C@H](C)[C@H](N)C(=O)N[C@@H](CC(N)=O)C(=O)N[C@@H](CC(C)C)C(=O)N[C@@H](CO)C(=O)N[C@@H](C)C(=O)N[C@@H](CC(C)C)C(=O)N[C@@H](C)C(=O)N[C@@H](C)C(=O)N[C@@H](CC(C)C)C(=O)N[C@@H](C)C(=O)N[C@@H](CCCCN)C(=O)N[C@@H](CCCCN)C(=O)N[C@H](C(=O)N[C@@H](CC(C)C)C(N)=O)[C@@H](C)CC` [S4], the “Average (percentage cell inhibition), Dmastoparan MDA-MB231 12.5uM” value with MDA-MB-231 cells is listed as 28.0357%. In addition, the “Average (percentage cell inhibition), Mastoparan PBMC” value in the test with PBMC worked out at 7.7%.

On to `CC[C@H](C)[C@H](N)C(=O)N[C@@H](CC(N)=O)C(=O)N[C@@H](CC(C)C)C(=O)N[C@@H](CCCCN)C(=O)N[C@@H](C)C(=O)N[C@@H](CC(C)C)C(=O)N[C@@H](C)C(=O)N[C@@H](C)C(=O)N[C@@H](CC(C)C)C(=O)N[C@@H](C)C(=O)N[C@@H](C)C(=O)N[C@@H](CCCCN)C(=O)N[C@H](C(=O)N[C@@H](CC(C)C)C(N)=O)[C@@H](C)CC` [A11], for which, in the test with MDA-MB-231 cells, the “Average (percentage cell inhibition), Dmastoparan MDA-MB231 12.5uM” value is listed as 45.8441%. Besides, in the test on PBMC, the “Average (percentage cell inhibition), Mastoparan PBMC” value came out at 11.43%.

Regarding `CC[C@H](C)[C@H](N)C(=O)N[C@@H](CC(N)=O)C(=O)N[C@@H](Cc1c[nH]cn1)C(=O)N[C@@H](CCCCN)C(=O)N[C@@H](C)C(=O)N[C@@H](CC(C)C)C(=O)N[C@@H](C)C(=O)N[C@@H](C)C(=O)N[C@@H](CC(C)C)C(=O)N[C@@H](C)C(=O)N[C@@H](CCCCN)C(=O)N[C@@H](CCCCN)C(=O)N[C@H](C(=O)N[C@@H](CC(C)C)C(N)=O)[C@@H](C)CC` [H3], the “Average (percentage cell inhibition), Dmastoparan MDA-MB231 12.5uM” value in the test on MDA-MB-231 cells is on record as 10.8919%. For the same compound, in the test on PBMC, the “Average (percentage cell inhibition), Mastoparan PBMC” value was -4.438%.

Regarding `CC[C@H](C)[C@H](N)C(=O)N[C@@H](CC(N)=O)C(=O)N[C@@H](CC(C)C)C(=O)N[C@@H](CCCCN)C(=O)N[C@@H](C)C(=O)N[C@@H](CC(C)C)C(=O)N[C@@H](C)C(=O)N[C@@H](C)C(=O)N[C@@H](CC(C)C)C(=O)N[C@@H](C)C(=O)N[C@@H](CCCCN)C(=O)N[C@@H](CCCNC(=N)N)C(=O)N[C@H](C(=O)N[C@@H](CC(C)C)C(N)=O)[C@@H](C)CC` [R12], the “Average (percentage cell inhibition), Dmastoparan MDA-MB231 12.5uM” value in the test on MDA-MB-231 cells is recorded as 35.2659%. Also, the “Average (percentage cell inhibition), Mastoparan PBMC” value in the test on PBMC is recorded as -4.156%.

With `CC[C@H](C)[C@H](N)C(=O)N[C@@H](CC(N)=O)C(=O)N[C@@H](CC(C)C)C(=O)N[C@@H](CCCCN)C(=O)N[C@@H](C)C(=O)N[C@@H](CC(C)C)C(=O)N[C@@H](C)C(=O)N[C@@H](C)C(=O)N[C@@H](CC(C)C)C(=O)N[C@@H](C)C(=O)N[C@@H](CC(N)=O)C(=O)N[C@@H](CCCCN)C(=O)N[C@H](C(=O)N[C@@H](CC(C)C)C(N)=O)[C@@H](C)CC` [N11], the “Average (percentage cell inhibition), Dmastoparan MDA-MB231 12.5uM” value in the test on MDA-MB-231 cells is given as 40.5108%. Also, in the test with PBMC, the “Average (percentage cell inhibition), Mastoparan PBMC” value amounted to 4.624%.
